Reference: ChEMBL document CHEMBL1151047, “NS 257 (1,2,3,6,7,8-hexahydro-3(hydroxyimino)-N,N,7-trimethyl-2-oxobenzo[2,1-b:3,4-c']dipyrrole-5-sulfonamide) is a potent, systemically active ampa receptor antagonist” (Bioorg Med Chem Lett, 1994)

What was measured:
[1] = target: Glutamate receptor ionotropic, AMPA (Rattus norvegicus, UniProt P19490+P19491+P19492+P19493); assay: Binding affinity towards AMPA receptor to rat cortical membrane using [3H]AMPA as radioligand
[2] = target: Glutamate receptor ionotropic, kainate; assay: Binding affinity towards kainate receptor to rat cortical membrane using [3H]kainate as radioligand
Glutamate NMDA receptor = assay: Binding affinity towards glutamate binding site of NMDA receptor to rat cortical membrane using NMDA sensitive [3H]-glutamate as radioligand
[3] = Compound was tested for neuronal damage produced by application of 500 uM kainate; type: functional
Mus musculus = assay: Ability to block the AMPA-induced convulsant effects in mice upon intracerebroventricular injection; type: functional; conditions: central
[4] = target: Glutamate receptor ionotropic, NMDA 1 (Rattus norvegicus, UniProt P35439); assay: Binding affinity towards glycine binding site of NMDA receptor to rat cortical membrane using [3H]glycine as radioligand
[5] = Inhibitory activity against lactate dehydrogenase release was determined; type: functional

SMILES | IC50 [1] | IC50 [2] | IC50 (Glutamate NMDA receptor) | IC50 [3] | ED50 (Mus musculus) | IC50 [4] | IC50 [5]
CN1Cc2c(S(=O)(=O)N(C)C)cc3c(N=O)c(O)[nH]c3c2C1 | 0.7 µM | 13 µM | 44 µM | 10 µM | 10 mg/kg | > 100 µM | 9 µM
NS(=O)(=O)c1cccc2c1c([N+](=O)[O-])cc1nc(O)c(O)nc12 [NBQX] | – | – | – | – | 10 mg/kg | – | –
